pEC50: −log10 of the molar value. Where two headings read alike, the source gives them in different places.
Tests used:
Experiment in all cases: Luciferase assay, sulfur compounds
Assay type in all cases: cell-based
consensus OR11H2 = molecular target: T1, consensus OR11H2 (Homo sapiens, UniProt Q8NH07, A157T/A61V/C266F/D203A/E289A/F213L/F41L/F62C/G242R/I210T/I230L/I288V/I49T/K181M/K238L/L128F/L146H/L162I/M76I/N106T/N25R/P269S/Q137R/Q308R/Q30L/R68Q/S246A/S268G/T131A/T283A/T37K/V63A/Y156C); conditions: in the presence of a copper ion
T1 construct: expressed in transfected cells; host or cells: HEK293
T1 sequence (Q8NH07 12-326 N25R/Q30L/T37K/F41L/I49T/A61V/F62C/V63A/R68Q/M76I/N106T/L128F/T131A/Q137R/L146H/Y156C/A157T/L162I/K181M/D203A/I210T/F213L/I230L/K238L/G242R/S246A/C266F/S268G/P269S/T283A/I288V/E289A/Q308R): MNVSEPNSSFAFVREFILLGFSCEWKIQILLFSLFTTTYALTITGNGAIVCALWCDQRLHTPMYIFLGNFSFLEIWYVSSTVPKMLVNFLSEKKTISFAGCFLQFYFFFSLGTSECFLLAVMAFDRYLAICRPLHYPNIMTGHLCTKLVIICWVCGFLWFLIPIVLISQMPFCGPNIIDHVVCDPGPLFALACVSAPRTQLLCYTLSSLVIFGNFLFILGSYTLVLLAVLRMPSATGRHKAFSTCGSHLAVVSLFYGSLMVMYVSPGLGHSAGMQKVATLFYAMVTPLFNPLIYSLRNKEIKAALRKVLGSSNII
Experimental: (§1) A reaction solution as to each consensus olfactory receptor prepared in Examples described above was prepared according to the composition shown in Table 4, left standing for 20 minutes in a clean bench, and then added to each well of a 96-well plate (Becton, Dickinson and Company). The original olfactory receptor was used as to OR4S2. Composition shown in Table 20 was used as to OR11H2 and OR4E2. Subsequently, 100 μL of HEK293 cells suspended in DMEM (Nacalai Tesque, Inc.) was inoculated at 2×10^5 cells/cm^2 to each well, and cultured for 24 hours in an incubator kept at 37° C. and 5% CO2. Cells expressing no olfactory receptor (Mock) were provided as a control.
(§2) The medium was removed from the cultures prepared in 1), and 75 μL of a test substance solution (methyl mercaptan (MeSH) (CAS: 74-93-1, Tokyo Chemical Industry Co., Ltd.), dimethyl sulfide (DMS) (CAS: 75-18-3, FUJIFILM Wako Pure Chemical Corp.), dimethyl disulfide (DMDS) (CAS: 624-92-0, Tokyo Chemical Industry Co., Ltd.), concentration range: 0 μM, 1 μM, 3 μM, 10 μM, 30 μM, 100 μM, and 300 μM, or dimethyl trisulfide (DMTS) (CAS: 3658-80-8, Tokyo Chemical Industry Co., Ltd.), concentration range: 0 μM, 0.1 μM, 0.3 μM, 1 μM, 3 μM, 10 μM, and 30 μM) prepared with a fresh medium was added thereto. Under a copper ion addition condition, the test substance solution was adjusted to contain 30 μM copper(II) chloride (FUJIFILM Wako Pure Chemical Corp.) in addition to the odorant. The cells were cultured for 4 hours in a CO2 incubator and the luciferase gene was expressed sufficiently in the cells. Luciferase activity was measured using Dual-Glo™ luciferase assay system (Promega Corp.) in accordance with the operation manual of the product. A luminescence value derived from firefly luciferase induced by test substance stimulation in each well of the 96-well plate was divided by a luminescence value derived from Renilla luciferase to calculate a value (fluc/hRluc) as a signal, which was then used in analysis. The signal under each transfection condition was normalized with the signal value (fluc/hRluc) under an odorant stimulation-free condition defined as 0% and the signal value (fluc/hRluc) by stimulation with 10 μM forskolin defined as 100%, and used as a response (%) in analysis.

consensus OR2T1 = molecular target: T2, consensus OR2T1 (Homo sapiens, UniProt O43869, C277R/D138G/I77L/L118F/L265I/L324F/N134D/Q276H/S299T)
T2 construct: expressed in transfected cells; host or cells: HEK293
T2 sequence (O43869 52-369 I77L/L118F/N134D/D138G/L265I/Q276H/C277R/S299T/L324F): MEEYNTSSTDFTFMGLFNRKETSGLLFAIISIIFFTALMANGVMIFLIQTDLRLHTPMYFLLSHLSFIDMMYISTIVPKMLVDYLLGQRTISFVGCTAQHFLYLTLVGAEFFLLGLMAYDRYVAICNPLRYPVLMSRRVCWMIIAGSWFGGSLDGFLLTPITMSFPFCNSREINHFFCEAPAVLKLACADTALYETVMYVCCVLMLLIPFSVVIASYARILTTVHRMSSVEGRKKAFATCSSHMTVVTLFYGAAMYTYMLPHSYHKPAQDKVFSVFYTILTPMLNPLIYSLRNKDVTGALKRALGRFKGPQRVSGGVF
Experimental: as §1, §2

consensus OR2T11 = molecular target: T3, consensus OR2T11 (Homo sapiens, UniProt Q8NH01)
T3 construct: fused on or other part: N-terminal Flag-Rho tag from the pME18S vector
T3 sequence (Q8NH01 whole entry, looked up, the tested form may be a part): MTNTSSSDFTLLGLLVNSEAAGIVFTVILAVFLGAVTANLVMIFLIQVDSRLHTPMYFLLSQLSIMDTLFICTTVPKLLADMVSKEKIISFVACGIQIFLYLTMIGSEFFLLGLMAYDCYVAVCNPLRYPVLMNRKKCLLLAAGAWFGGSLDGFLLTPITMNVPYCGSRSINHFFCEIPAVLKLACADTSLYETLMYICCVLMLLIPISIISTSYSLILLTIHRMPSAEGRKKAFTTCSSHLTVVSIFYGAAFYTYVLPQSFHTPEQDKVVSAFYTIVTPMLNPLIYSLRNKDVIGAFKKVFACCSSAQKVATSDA
Experimental: as §1, §2

consensus OR2T4 = molecular target: T4, consensus OR2T4 (Homo sapiens, UniProt Q8NH00, A104M/A342V/C83S/E340G/F135L/G202R/G259R/I245V/L252F/L277M/L47V/N218K/R201C/S177A/T338N/V244T/V317L)
T4 construct: expressed in transfected cells; host or cells: HEK293
T4 sequence (Q8NH00 with tags, fused parts or gaps L47V/C83S/A104M/F135L/S177A/R201C/G202R/N218K/V244T/I245V/L252F/G259R/L277M/V317L/T338N/E340G/A342V): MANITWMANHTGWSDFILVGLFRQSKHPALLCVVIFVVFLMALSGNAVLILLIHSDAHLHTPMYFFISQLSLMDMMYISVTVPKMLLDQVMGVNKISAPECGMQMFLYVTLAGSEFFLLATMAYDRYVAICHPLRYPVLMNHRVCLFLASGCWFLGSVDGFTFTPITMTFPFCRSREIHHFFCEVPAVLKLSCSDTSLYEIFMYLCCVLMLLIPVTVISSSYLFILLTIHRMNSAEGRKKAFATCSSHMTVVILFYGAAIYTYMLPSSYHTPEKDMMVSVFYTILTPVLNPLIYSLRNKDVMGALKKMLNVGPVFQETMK
Experimental: as §1, §2

consensus OR4C15 = molecular target: T5, consensus OR4C15 (Homo sapiens, UniProt Q8NGM1, A218G/A270V/E23K/G63A/I200A/I247V/I275T/L152F/L222F/L266F/M197L/N174D/N209I/N278T/Q295N/R137W/R299K/T258A/T88R/V55G/V87E/W233R)
T5 construct: Flag (N); Rho tag (N); expressed in transfected cells; host or cells: HEK293
T5 sequence (Q8NGM1 1-311 with the stated changes limits assumed): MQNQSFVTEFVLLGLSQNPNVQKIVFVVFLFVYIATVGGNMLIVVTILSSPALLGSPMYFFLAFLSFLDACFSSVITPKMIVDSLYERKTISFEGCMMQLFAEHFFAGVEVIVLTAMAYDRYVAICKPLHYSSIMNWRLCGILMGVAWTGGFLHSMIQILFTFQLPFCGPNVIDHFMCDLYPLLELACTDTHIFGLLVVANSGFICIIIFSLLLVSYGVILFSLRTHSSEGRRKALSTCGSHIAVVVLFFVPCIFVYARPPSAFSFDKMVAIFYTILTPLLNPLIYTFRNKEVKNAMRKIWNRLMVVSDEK
Experimental: as §1, §2

[1] = in the presence of a copper ion
[2] = read-out: EC50(μM) with 30 μM CuCl2; consensus OR2T11; 30 μM CuCl2

| Compound | response of consensus OR11H2 (consensus OR11H2) | response of consensus OR2T1 (consensus OR2T1; [1]) | dose dependence of the response of consensus OR2T11 (consensus OR2T11; [1]) | response of consensus OR2T11 (consensus OR2T11; [1]) | EC50 (consensus OR2T11; [2]) | response of consensus OR2T4 (consensus OR2T4; [1]) | pEC50 (consensus OR4C15) | dose dependence of the response of consensus OR4C15 (consensus OR4C15; [1]) | response of consensus OR4C15 (consensus OR4C15; [1]) | EC50 (consensus OR2T11; consensus OR2T11; 30 μM CuCl2; read-out: EC50(μM) with 30 μM CuCl2) | pEC50 (consensus OR2T1) | dose dependence of the response of consensus OR2T1 (consensus OR2T1; [1]) | pEC50 (consensus OR2T4) | dose dependence of the response of consensus OR2T4 (consensus OR2T4; [1]) |
| --- | --- | --- | --- | --- | --- | --- | --- | --- | --- | --- | --- | --- | --- | --- |
| CSSC [dimethyl disulfide] | responded | responded | dose-dependent response | responded | 246 µM | responded | 3.21 | dose-dependent response | responded | – | – | – | – | – |
| CSSSC [dimethyl trisulfide] | responded | responded | dose-dependent response | responded | – | responded | – | – | responded | 26 µM | – | – | – | – |
| CS [methyl mercaptan] | responded | responded | dose-dependent response | responded | 5 µM | responded | – | – | responded | – | 4.48 | dose-dependent response | 3.47 | dose-dependent response |

Reference: patent US20240279302A1, “OLFACTORY RECEPTOR EXPRESSING METHOD AND RESPONSE MEASUREMENT METHOD” (Kao Corporation, priority 2021, published 2024)
